Each block holds one molecule with its values, some of them ahead of it.
How the values were obtained:
[1] = target: cAMP-dependent protein kinase catalytic subunit alpha (Homo sapiens, UniProt P17612); assay: Selectivity interaction (KinomeScan (DiscoverX)) EUB0001049a PRKACA; details: at 1 µM
[2] = target: T1, Receptor-interacting serine/threonine-protein kinase 4 (Homo sapiens) (UniProt P57078); assay: Selectivity interaction (Ambit KINOMEscan and KiNATiv profiling in Jurkat cells) EUB0000090b RIPK4; assay type: cell-based; details: at 1 µM
T1 sequence (whole entry): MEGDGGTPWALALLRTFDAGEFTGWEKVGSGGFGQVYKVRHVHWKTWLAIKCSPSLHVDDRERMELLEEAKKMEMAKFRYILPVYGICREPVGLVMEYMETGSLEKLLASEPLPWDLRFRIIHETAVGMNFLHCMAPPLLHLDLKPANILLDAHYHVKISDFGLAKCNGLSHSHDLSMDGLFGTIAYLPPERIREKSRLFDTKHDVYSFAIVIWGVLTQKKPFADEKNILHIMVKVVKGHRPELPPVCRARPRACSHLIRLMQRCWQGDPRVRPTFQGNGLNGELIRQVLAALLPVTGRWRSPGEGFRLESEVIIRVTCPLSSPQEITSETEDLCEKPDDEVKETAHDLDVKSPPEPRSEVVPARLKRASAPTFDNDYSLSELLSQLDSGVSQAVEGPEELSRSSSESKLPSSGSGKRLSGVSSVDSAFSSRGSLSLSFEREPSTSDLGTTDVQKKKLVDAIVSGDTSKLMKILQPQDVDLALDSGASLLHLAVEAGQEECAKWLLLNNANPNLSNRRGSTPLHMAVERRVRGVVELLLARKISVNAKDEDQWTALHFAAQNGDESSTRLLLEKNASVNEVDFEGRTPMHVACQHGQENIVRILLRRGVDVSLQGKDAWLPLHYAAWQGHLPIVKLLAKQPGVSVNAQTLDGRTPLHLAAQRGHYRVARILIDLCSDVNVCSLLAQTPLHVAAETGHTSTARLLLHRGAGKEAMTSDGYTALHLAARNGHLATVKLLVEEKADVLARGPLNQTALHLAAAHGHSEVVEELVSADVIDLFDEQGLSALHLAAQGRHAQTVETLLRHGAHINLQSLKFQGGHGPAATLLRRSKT

[3] = target: Calcium/calmodulin-dependent protein kinase type II subunit beta (Homo sapiens) (UniProt Q13554); assay: Selectivity interaction (ActivX KiNativ screen (kinase selectivity in THP-1 cell lysates)) EUB0000639a CAMK2B; assay type: subcellular; details: lysate
[4] = target: Cyclin-dependent kinase 5 (Homo sapiens, UniProt Q00535); assay: Selectivity interaction (ActivX KiNativ screen (kinase selectivity in THP-1 cell lysates)) EUB0000639a CDK5; assay type: subcellular; details: lysate, at 5 µM
[5] = target: WD repeat-containing protein 5 (Homo sapiens) (UniProt P61964); assay: Selectivity interaction (PWWP, WD40, and Tudor domain panel (DSLS measurements, literature)) EUB0000270b WDR5
[6] = target: Delta-type opioid receptor (Homo sapiens, UniProt P41143); assay: Selectivity interaction (Opiate Delta receptor assay, human recombinant ) EUB0000877a OPRD1
[7] = target: Tyrosine-protein kinase Lck (Homo sapiens, UniProt P06239); assay: Selectivity interaction (Kinase panel (literature)) EUB0001199aCl LCK; details: at 1 µM
[8] = target: T2, Alpha-1A adrenergic receptor (Homo sapiens) (UniProt P35348); assay: Selectivity interaction (Eurofins CEREP Diversity Profile (receptors and ion channels)) EUB0000279b ADRA1A; details: at 10 µM
T2 sequence (whole entry): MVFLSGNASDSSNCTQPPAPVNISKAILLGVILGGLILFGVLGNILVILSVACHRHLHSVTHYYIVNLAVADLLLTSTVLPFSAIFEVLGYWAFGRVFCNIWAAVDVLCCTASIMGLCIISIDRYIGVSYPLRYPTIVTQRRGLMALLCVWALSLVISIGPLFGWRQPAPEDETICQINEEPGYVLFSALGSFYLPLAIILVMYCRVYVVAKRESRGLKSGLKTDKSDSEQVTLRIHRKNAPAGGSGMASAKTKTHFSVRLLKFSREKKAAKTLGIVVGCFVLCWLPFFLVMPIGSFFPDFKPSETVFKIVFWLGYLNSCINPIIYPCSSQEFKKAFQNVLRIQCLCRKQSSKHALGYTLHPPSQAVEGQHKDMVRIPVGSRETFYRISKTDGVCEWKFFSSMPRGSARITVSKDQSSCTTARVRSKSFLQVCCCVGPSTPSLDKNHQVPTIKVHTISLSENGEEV

[9] = target: Endothelin receptor type B (Homo sapiens) (UniProt P24530); assay: Selectivity interaction (Eurofins CEREP Diversity Profile (receptors and ion channels)) EUB0000279b EDNRB; details: at 10 µM
[10] = target: Ribosomal protein S6 kinase alpha-2 (Homo sapiens) (UniProt Q15349); details: at 10 µM
[11] = tested on: Angiopoietin-1 receptor (Homo sapiens), Q02763 [Y897S]; assay: (§1) Selectivity interaction (ProQinase) EUB0000171b TEK
[12] = target: Angiopoietin-1 receptor (Homo sapiens) (UniProt Q02763); assay: as §1
[13] = tested on: Angiopoietin-1 receptor (Homo sapiens), Q02763 [R849W]; assay: as §1
[14] = target: Tyrosine-protein kinase SYK (Homo sapiens, UniProt P43405); assay: Selectivity interaction (ActivX KiNativ screen (ex vivo kinase selectivity in human PBMCs)) EUB0001619a SYK; assay type: cell-based; details: PBMC, at 1 µM
[15] = target: Insulin receptor-related protein (Homo sapiens) (UniProt P14616); assay: Selectivity interaction (SelectScreen profiling (Invitrogen)) EUB0000607a INSRR; details: at 2 µM
[16] = target: Serine/threonine-protein kinase Nek6 (Homo sapiens) (UniProt Q9HC98); assay: Selectivity interaction (KinomeScan (DiscoverX)) EUB0000666a NEK6; details: at 10 µM
Sequence of Serine/threonine-protein kinase Nek6 (Homo sapiens) (Q9HC98 whole entry): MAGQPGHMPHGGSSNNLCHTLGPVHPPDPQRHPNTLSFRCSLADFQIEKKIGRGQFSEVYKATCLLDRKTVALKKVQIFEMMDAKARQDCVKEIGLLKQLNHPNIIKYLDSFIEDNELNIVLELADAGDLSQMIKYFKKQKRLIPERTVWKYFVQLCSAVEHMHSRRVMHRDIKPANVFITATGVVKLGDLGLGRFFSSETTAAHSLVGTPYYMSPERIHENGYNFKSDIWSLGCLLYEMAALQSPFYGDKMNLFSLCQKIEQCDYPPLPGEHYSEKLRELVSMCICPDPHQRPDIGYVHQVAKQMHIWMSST

Sequence of Calcium/calmodulin-dependent protein kinase type II subunit beta (Homo sapiens) (Q13554 whole entry): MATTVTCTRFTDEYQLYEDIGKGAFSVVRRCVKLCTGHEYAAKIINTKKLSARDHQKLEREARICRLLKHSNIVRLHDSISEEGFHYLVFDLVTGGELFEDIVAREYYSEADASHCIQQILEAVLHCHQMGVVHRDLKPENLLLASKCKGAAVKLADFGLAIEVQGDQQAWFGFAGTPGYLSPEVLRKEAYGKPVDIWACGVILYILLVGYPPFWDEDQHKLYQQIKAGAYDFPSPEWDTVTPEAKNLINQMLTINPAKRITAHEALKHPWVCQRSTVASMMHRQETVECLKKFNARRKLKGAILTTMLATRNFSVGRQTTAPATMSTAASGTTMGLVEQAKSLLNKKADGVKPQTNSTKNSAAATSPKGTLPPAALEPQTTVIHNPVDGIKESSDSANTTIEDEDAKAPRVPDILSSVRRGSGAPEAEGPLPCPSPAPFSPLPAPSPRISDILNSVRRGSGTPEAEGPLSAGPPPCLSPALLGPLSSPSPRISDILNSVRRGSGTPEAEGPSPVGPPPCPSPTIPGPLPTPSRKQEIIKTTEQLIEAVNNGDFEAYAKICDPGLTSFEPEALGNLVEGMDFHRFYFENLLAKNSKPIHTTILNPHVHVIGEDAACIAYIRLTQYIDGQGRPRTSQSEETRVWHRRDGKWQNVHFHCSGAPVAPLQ
Sequence of Angiopoietin-1 receptor (Homo sapiens), Q02763 [R849W] (Q02763 whole entry R849W): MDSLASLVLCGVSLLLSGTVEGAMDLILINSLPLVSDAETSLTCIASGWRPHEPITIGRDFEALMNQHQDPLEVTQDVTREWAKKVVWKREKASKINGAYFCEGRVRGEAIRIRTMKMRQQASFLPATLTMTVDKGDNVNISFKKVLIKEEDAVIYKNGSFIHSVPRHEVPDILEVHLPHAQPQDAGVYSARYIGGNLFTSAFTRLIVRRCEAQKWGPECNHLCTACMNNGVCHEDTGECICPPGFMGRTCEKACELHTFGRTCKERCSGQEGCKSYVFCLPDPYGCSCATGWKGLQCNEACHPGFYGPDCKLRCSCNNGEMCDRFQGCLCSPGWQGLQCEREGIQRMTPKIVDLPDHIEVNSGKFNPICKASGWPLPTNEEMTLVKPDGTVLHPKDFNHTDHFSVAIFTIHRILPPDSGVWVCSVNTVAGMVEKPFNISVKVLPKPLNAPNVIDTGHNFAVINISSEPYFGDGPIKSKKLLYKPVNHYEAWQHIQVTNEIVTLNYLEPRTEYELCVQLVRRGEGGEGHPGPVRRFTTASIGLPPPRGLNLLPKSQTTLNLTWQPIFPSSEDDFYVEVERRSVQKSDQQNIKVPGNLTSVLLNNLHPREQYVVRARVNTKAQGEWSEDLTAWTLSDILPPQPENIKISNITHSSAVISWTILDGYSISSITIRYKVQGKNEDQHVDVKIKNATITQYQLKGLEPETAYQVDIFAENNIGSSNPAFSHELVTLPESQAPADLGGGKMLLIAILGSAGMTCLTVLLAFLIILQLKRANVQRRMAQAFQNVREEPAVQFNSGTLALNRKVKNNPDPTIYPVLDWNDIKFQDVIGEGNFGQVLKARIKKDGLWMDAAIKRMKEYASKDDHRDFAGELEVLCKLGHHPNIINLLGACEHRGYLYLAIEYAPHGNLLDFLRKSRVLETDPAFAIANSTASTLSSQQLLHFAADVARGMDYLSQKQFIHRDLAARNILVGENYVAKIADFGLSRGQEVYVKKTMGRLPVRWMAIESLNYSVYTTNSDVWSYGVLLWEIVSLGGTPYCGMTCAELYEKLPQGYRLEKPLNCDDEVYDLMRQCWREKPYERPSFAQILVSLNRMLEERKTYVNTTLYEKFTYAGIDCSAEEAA
Sequence of Angiopoietin-1 receptor (Homo sapiens), Q02763 [Y897S] (Q02763 whole entry Y897S): as the sequence (Q02763 whole entry R849W) above, with W849R, Y897S counted along it
Sequence of Angiopoietin-1 receptor (Homo sapiens) (Q02763 whole entry): as the sequence (Q02763 whole entry R849W) above, with W849R counted along it
Sequence of Delta-type opioid receptor (P41143 whole entry): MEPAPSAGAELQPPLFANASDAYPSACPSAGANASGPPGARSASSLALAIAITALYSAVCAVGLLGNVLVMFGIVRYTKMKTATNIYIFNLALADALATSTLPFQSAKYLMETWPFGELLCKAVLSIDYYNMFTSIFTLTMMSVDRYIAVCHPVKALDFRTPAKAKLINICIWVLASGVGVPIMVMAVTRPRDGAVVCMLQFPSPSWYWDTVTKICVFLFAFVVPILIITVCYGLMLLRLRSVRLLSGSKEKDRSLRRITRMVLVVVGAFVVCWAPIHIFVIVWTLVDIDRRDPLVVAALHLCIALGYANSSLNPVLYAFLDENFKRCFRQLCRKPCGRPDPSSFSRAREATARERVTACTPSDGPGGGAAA
Sequence of Cyclin-dependent kinase 5 (Q00535 whole entry, looked up, the tested form may be a part): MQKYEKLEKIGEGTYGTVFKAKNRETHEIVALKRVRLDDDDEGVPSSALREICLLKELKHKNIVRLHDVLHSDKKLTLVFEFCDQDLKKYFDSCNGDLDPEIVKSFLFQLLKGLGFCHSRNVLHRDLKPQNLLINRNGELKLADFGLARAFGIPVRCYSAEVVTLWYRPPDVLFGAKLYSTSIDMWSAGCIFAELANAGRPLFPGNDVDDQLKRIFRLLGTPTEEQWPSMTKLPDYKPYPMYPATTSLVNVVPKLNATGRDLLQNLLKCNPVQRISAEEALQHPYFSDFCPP
Sequence of Tyrosine-protein kinase Lck (P06239 2-509 limits assumed): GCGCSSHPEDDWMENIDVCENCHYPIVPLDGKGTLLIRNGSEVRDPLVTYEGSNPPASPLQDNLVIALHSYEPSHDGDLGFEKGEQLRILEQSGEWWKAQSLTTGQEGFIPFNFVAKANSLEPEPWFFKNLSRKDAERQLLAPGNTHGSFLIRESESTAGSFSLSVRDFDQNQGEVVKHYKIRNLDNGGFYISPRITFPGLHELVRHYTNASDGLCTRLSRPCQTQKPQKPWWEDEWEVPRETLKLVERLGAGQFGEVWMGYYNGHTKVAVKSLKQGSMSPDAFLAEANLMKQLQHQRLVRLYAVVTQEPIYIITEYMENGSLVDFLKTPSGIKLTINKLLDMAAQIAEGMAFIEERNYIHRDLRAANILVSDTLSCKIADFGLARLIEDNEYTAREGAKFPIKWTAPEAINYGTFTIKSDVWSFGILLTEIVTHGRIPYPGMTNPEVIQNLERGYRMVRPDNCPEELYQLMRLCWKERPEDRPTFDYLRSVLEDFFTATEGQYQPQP
Sequence of Endothelin receptor type B (Homo sapiens) (P24530 whole entry): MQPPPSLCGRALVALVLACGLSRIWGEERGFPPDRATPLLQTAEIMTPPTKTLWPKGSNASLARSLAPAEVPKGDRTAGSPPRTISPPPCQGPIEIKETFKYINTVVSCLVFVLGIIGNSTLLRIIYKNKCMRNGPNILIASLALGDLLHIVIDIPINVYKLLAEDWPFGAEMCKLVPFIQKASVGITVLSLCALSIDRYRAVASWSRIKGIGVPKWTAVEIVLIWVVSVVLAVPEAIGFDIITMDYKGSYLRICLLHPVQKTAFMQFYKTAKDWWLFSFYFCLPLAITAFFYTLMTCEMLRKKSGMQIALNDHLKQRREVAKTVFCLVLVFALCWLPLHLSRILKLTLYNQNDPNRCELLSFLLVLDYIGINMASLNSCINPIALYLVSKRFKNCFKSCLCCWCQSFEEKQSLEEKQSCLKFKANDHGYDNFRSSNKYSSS
Sequence of Ribosomal protein S6 kinase alpha-2 (Homo sapiens) (Q15349 whole entry): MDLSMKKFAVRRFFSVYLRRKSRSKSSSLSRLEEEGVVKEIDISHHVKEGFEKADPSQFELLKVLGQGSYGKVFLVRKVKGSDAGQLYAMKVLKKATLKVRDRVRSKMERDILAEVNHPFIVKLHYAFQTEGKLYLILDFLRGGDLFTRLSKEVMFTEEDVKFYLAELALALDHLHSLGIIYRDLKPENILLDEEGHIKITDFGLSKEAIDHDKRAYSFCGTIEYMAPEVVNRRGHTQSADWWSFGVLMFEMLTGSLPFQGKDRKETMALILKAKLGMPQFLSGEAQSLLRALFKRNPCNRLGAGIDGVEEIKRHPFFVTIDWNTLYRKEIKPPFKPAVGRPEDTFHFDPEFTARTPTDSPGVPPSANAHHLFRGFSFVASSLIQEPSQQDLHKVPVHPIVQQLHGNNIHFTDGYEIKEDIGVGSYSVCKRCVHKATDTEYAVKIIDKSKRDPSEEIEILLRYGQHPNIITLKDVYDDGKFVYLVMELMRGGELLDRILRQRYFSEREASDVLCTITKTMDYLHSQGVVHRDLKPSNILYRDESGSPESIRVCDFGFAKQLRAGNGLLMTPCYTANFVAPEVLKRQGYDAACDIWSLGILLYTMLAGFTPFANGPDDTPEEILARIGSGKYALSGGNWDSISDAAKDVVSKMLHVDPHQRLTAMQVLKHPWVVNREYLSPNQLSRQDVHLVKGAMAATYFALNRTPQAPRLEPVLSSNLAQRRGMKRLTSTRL

SMILES: COc1cc(Nc2nc(C)cc(-c3cnn4nc(OC)ccc34)n2)cc(C(F)(F)F)c1
- % of control [1]: 92%

SMILES: CN(C)C/C=C/C(=O)Nc1ccc(C(=O)N2CCCC(Nc3ncc(Cl)c(-c4c[nH]c5ccccc45)n3)C2)cc1 (stereo not drawn)
- % of control [2]: 86%

- % of inhibition ([3]; at 0.01 µM): 3.3%
- % of inhibition ([3]; at 0.04 µM): 16.7%
- % of inhibition ([3]; at 0.2 µM): 6.9%
- % of inhibition ([3]; at 1 µM): 25.1%
- % of inhibition ([3]; at 5 µM): 56.2%
- % of inhibition [4]: -23.1%
SMILES: CC[C@@H]1[C@H](F)C(=O)N[C@@H]1COc1nccc2cc(C(N)=O)c(OC)cc12 [ZIMLOVISERTIB]

- dTagg [5]: -0.7 K
SMILES: Cc1cc(CN)cc(C)c1-c1ncn(C)c1-c1cncn1C

- IC50 [6]: > 30 µM
SMILES: CCC(=O)N1CC[C@H](Nc2ncnc3c2CN(c2cnc(OC)c(C(F)(F)F)c2)CC3)C1 [LENIOLISIB]

- % of inhibition [7]: 3%
SMILES: CN1Cc2nccc(-c3cn(C)nc3-c3ccc(F)cc3)c2C1=O

- % of control [8]: 94%
- % of control [9]: 84%
SMILES: CC(=O)c1cc(-c2ccccc2OCC2CC2)c2ncccn12

- % of control [10]: 100%
SMILES: CCN(CC)CCCCNc1ncc2cc(-c3cc(OC)cc(OC)c3)c(NC(=O)NC(C)(C)C)nc2n1

- % of control ([11]; at 1 µM): 85%
- % of control ([11]; at 5 µM): 85%
- % of control ([12]; at 1 µM): 85%
- % of control ([12]; at 5 µM): 81%
- % of control ([13]; at 1 µM): 92%
- % of control ([13]; at 5 µM): 107%
SMILES: C=CC(=O)Nc1cccc(C(=O)Nc2ccc(Nc3cc(-c4[nH]c(SC)nc4C)ccn3)cc2)c1

SMILES: N#Cc1cccc(-c2c[nH]c3ncnc(N4CCOCC4)c23)c1
- % of inhibition [14]: 0%

SMILES: CNC(=O)Nc1ccc(-c2nc(N3CC4CCC(C3)O4)c3cnn(C4CCC5(CC4)OCCO5)c3n2)cc1
- % of inhibition [15]: 6%

SMILES: O=C(NOC[C@H](O)CO)c1ccc(F)c(F)c1Nc1ccc(I)cc1F
- % of control [16]: 100%

— ChEMBL document CHEMBL5465560, “Selectivity Literature for EUbOPEN Chemogenomic Library” (2024)
